In patent US5891882A, “Benzopyranopyrrole and benzopyranopyridine α-1 adenergic compounds” (priority 1997, dated 1999):
Structures can show the parent of a compound that is named as a salt.

What follows are molecules tested against T1, α-1A adrenoreceptor (canine prostate smooth muscle) (Canis lupus, UniProt A0A8I3NK63) (assay: Functional antagonism: inhibition of phenylephrine-induced contraction of canine prostate strips). Settings: Schild plot.
T1 construct: antagonism of phenylephrine-induced contraction (pA2, Schild)
T1 sequence (A0A8I3NK63 1-466): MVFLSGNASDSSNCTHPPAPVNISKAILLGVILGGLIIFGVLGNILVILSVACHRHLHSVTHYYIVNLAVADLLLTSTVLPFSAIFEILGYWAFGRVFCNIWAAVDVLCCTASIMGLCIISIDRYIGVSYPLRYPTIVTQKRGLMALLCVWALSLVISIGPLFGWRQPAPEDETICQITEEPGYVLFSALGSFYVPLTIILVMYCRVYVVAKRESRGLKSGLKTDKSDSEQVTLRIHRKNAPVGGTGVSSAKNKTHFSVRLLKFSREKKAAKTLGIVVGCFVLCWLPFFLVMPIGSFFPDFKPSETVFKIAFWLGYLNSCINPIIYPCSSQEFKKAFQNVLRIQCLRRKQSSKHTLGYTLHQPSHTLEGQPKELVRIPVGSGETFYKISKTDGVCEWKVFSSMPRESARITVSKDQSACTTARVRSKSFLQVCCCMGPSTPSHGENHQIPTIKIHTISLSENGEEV
Format: cell-based
Source text: Canine prostate strips were used in vitro as previously described (Hieble, J. P., Boyce, Caine, M., Fed Proc., 45: 2609-2614 (1986)), to determine antagonist potencies phenylephrine-induced contractions.
(§1) Functional assays indicative of pharmacologically defined α-1 adrenoreceptors were used to further characterize compounds. Inhibition of phenylephrine (PE)-induced contraction of canine prostate smooth muscle can be correlated with α-1A adrenoreceptor activation. […] For each of these models, agonist dose response curves were repeated against increasing concentrations of test agent to derive a Schild plot [log ([…]) against log (molarity of test agent)] to determine the pA2.
Canine prostate strips were used in vitro as previously described (Hieble, J. P., Boyce, A. J. and Caine, M., Fed. Proc., 45: 2609-2614 (1986)), to determine antagonist potencies against phenylephrine-induced contractions.

Q: How did the “In Vitro Characterization (pA2) Dog Prostate” value (from here on “In Vitro Characterization”) turn out when `COc1ccc2c(c1)OC[C@H]1CN(CCn3c(=O)[nH]c4c(sc5ccccc54)c3=O)C[C@@H]21.Cl` (racemic) [Example 63, 3-[2-((±)-cis-7-Methoxy-1,2,3,3a,4,9b-hexahydro-[1]-benzopyrano[3,4-c]pyrrol-2-yl)ethyl]-[1]benzthieno[3,2-d]pyrimidine-2,4(1H,3H)-dione hydrochloride] was run?
A: 6.65

Q: `COc1ccc2c(c1)OC[C@H]1CN(CCCn3c(=O)[nH]c4c(sc5ccccc54)c3=O)C[C@@H]21.Cl` (racemic) [Example 64] was tested. Which “In Vitro Characterization” value did it give?
A: 6.92

Q: `COc1cccc2c1[C@@H]1CN(CCn3c(=O)[nH]c4c(sc5ccccc54)c3=O)C[C@@H]1CO2.Cl` (racemic) [Example 65, 3-[2-((±)-cis-9-Methoxy-1,2,3,3a,4,9b-hexahydro-[1]-benzopyrano[3,4-c]pyrrol-2-yl)ethyl]-[1]-benzthieno[3,2-d]pyrimidine-2,4(1H,3H)-dione hydrochloride] was tested. Which “In Vitro Characterization” value did it give?
A: 7.76

Q: Which “In Vitro Characterization” value does the source give for `COc1cccc2c1[C@@H]1CN(CCCn3c(=O)[nH]c4c(sc5ccccc54)c3=O)C[C@@H]1CO2.Cl` (racemic) [Example 66, 3-[3-((±)-cis-9-Methoxy-1,2,3,3a,4,9b-hexahydro-[1]-benzopyrano[3,4-c]pyrrol-2-yl)propyl]-[1]-benzthieno[3,2-d]pyrimidine-2,4(1H,3H)-dione hydrochloride] here?
A: 7.48

Q: With `COc1cccc2c1OC[C@H]1CN(CCCn3c(=O)[nH]c4c(sc5ccccc54)c3=O)C[C@@H]21.Cl` (racemic) [Example 68, 3-[3-((±)-cis-6-Methoxy-1,2,3,3a,4,9b-hexahydro-[1]-benzopyrano[3,4-c]pyrrol-2-yl)propyl]-[1]-benzthieno[3,2-d]pyrimidine-2,4(1H,3H)-dione hydrochloride] as the molecule, how does the “In Vitro Characterization” value read?
A: 7.02

Q: Which “In Vitro Characterization” value does the source give for `Cl.O=c1[nH]c2c(sc3ccccc32)c(=O)n1CCN1C[C@@H]2COc3ccccc3[C@@H]2C1` (racemic) [Example 69, 3-[2-((±)-cis-1,2,3,3a,4,9b-hexahydro-[1]-benzopyrano[3,4-c]pyrrol-2-yl)ethyl]-[1]-benzthieno[3,2-d]pyrimidine-2,4(1H,3H)-dione hydrochloride] here?
A: 6.91

Q: How did the “In Vitro Characterization” value turn out when `COc1cccc2c1[C@H]1CN(CCCCn3c(=O)[nH]c4c(sc5nccnc54)c3=O)C[C@@H]1CO2.Cl.Cl` (racemic) [Example 74, 3-[4-((±)-trans-9-Methoxy-1,2,3,3a,4,9b-hexahydro-[1]-benzopyrano[3,4-c]pyrrol-2-yl)butyl]-pyrazino[2',3':4,5]thieno[3,2-d]pyrimidine-2,4(1H,3H)-dione dihydrochloride] was run?
A: 9.03

Q: For `COc1cccc2c1[C@@H]1CCN(CCCCn3c(=O)[nH]c4c(sc5ncccc54)c3=O)C[C@H]1CO2` (relative stereo) [Example 85, 3-[4-((±)-trans-10-Methoxy-1,3,4,4a,5,10b-hexahydro-2H-[1]-benzopyrano[3,4-c]pyrido-3-yl)butyl]-pyrido[3',2':4,5]thieno[3,2-d]pyrimidine-2,4(1H,3H)-dione dihydrochloride], which “In Vitro Characterization” value is on record?
A: 8.6

Q: `COc1cccc2c1[C@@H]1CN(CCCCn3c(=O)[nH]c4c(sc5cccnc54)c3=O)C[C@@H]1CO2` [Example 1, 3-[4-((3aR,9bR)-cis-9-Methoxy-1,2,3,3a,4,9b-hexahydro-[1]-benzopyrano[3,4-c]pyrrol-2-yl)butyl]-pyrido[2',3':4,5]thieno[3,2-d]pyrimidine-2,4(1H,3H)-dione hydrochloride] was tested. Which “In Vitro Characterization” value did it give?
A: 8.69

What follows are molecules tested against T2, α-1 Adrenoceptors (Rat Aorta) (Rattus norvegicus, UniProt P23944) (assay: Functional antagonism at α-1 adrenoceptors, rat aorta). Settings: read-out: In Vitro Characterization (pA2) Rat Aorta (converted).
T2 construct: Rat Aorta; from tissue; host or cells: rat aorta
T2 sequence (P23944 1-561): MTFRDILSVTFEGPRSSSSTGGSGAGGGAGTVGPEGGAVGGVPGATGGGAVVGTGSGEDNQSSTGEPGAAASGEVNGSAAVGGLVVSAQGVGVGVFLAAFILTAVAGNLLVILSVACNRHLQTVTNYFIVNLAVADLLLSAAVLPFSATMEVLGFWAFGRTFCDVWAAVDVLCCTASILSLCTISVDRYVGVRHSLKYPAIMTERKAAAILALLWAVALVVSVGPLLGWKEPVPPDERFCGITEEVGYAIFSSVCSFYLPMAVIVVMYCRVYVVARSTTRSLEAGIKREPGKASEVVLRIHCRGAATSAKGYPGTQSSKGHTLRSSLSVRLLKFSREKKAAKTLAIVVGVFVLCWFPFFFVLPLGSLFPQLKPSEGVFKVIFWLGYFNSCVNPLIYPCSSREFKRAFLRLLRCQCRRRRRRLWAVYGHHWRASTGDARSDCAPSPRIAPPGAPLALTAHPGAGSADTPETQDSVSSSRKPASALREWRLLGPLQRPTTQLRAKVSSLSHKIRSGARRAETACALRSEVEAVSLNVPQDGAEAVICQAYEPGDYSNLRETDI
Format: cell-based
Source text: as §1

Q: `COc1cccc2c1[C@@H]1CN(CCCCn3c(=O)[nH]c4c(sc5c(OC)ccnc54)c3=O)C[C@H]1CO2` [Example 17, 3-[4-((3aS,9bR)-trans-9-Methoxy-1,2,3,3a,4,9b-hexahydro-[1]-benzopyrano[3,4-c]pyrrol-2-yl)butyl]-6-methoxy-pyrido[2',3':4,51thieno[3,2-d]pyrimidine-2,4(1H,3H)-dione dihydrochloride] was tested. Which Kb did it give?
A: 0.631 nM

Q: How did the Kb turn out when `COc1cccc2c1[C@@H]1CN(CCCCn3c(=O)[nH]c4c(sc5c(OC)ccnc54)c3=O)C[C@@H]1CO2` [Example 18, 3-[4-((3aR,9bR)-cis-9-Methoxy-1,2,3,3a,4,9b-hexahydro-[1]-benzopyrano[3.4-c]pyrrol-2-yl)butyl]-6-methoxy-pyrido[2',3':4,51thieno[3,2-d]pyrimidine-2,4(1H,3H)-dione dihydrochloride] was run?
A: 0.457 nM

Q: With `COc1cccc2c1[C@@H]1CN(CCCCn3c(=O)[nH]c4c(sc5ccc(Cl)nc54)c3=O)C[C@H]1CO2` [Example 25, 3-[4-((3aS,9bR)-trans-9-Methoxy-1,2,3,3a,4,9b-hexahydro-[1]-benzopyrano[3,4-c]pyrrol-2-yl)butyl]-8-chloro-pyrido[2',3':4,5]thieno[3,2-d]pyrimidine-2,4(1H,3H)-dione dihydrochloride] as the molecule, how does the Kb read?
A: 0.0138 nM

Q: With `COc1cccc2c1[C@@H]1CN(CCCCn3c(=O)[nH]c4c(sc5cnccc54)c3=O)C[C@@H]1CO2` [Example 29, 3-[4-((3aR,9bR)-cis-9-Methoxy-1,2,3,3a,4,9b-hexahydro-[1]-benzopyrano[3,4-c]pyrrol-2-yl)butyl]-pyrido[4',3':4,5]thieno[3,2-d]pyrimidine-2,4(1H,3H)-dione hydrochloride] as the molecule, how does the Kb read?
A: 0.501 nM

Q: How did the Kb turn out when `COc1cnc2sc3c(=O)n(CCCCN4C[C@@H]5COc6cccc(OC)c6[C@@H]5C4)c(=O)[nH]c3c2n1` [Example 31, hydrochloride] was run?
A: 0.794 nM

Q: For `COc1cccc2c1[C@@H]1CN(CCCCn3c(=O)[nH]c4c(sc5nc(C)ccc54)c3=O)C[C@@H]1CO2` [Example 35, hydrochloride], which Kb is on record?
A: 0.741 nM

Q: For `COc1cccc2c1[C@@H]1CN(CCCCn3c(=O)[nH]c4c(sc5nccc(OC)c54)c3=O)C[C@@H]1CO2` [Example 36, 3-[4-((3aR,9bR)-cis-9-Methoxy-1,2,3,3a,4,9b-hexahydro-[1]-benzopyrano[3,4-c]pyrrol-2-yl)butyl]-9-methoxy-pyrido[2',3':4,5]thieno[3,2-d]pyrimidine-2,4(1H,3H)-dione hydrochloride], which Kb is on record?
A: 0.372 nM

Q: How did the Kb turn out when `COc1cccc2c1[C@@H]1CN(CCCCn3c(=O)[nH]c4c(sc5ccc(Cl)nc54)c3=O)C[C@@H]1CO2` [Example 37, 3-[4((3aR,9bR)-cis-9-Methoxy-1,2,3,3a,4,9b-hexahydro-[1]-benzopyrano[3,4-c]pyrrol-2-yl)butyl]-8-chloro-pyrido[2',3':4,5]thieno[3,2-d]pyrimidine-2,4(1H,3H)-dione hydrochloride] was run?
A: 0.229 nM

Q: Which Kb does the source give for `COc1cccc2c1[C@@H]1CN(CCCCn3c(=O)[nH]c4c(sc5cc(Cl)cnc54)c3=O)C[C@@H]1CO2` [Example 38, 3-[4((3aR,9bR)-cis-9-Methoxy-1,2,3,3a,4,9b-hexahydro-[1]-benzopyrano[3,4-c]pyrrol-2-yl)butyl]-7-chloro-pyrido[2',3':4,5]thieno[3,2-d]pyrimidine-2,4(1H,3H)-dione hydrochloride] here?
A: 1.15 nM

Q: For `COc1cccc2c1[C@@H]1CN(CCCCn3c(=O)[nH]c4c(sc5nc(-c6ccccc6)cnc54)c3=O)C[C@@H]1CO2` [Example 40, 3-[4-((3aR,9bR)-cis-9-Methoxy-1,2,3,3a,4,9b-hexahydro-[1]-benzopyrano[3,4-c]pyrrol-2-yl)butyl]-7-phenyl-pyrazino[2',3':4,5]thieno[3,2-d]pyrimidine-2,4(1H,3H)-dione hydrochloride], which Kb is on record?
A: 4.47 nM

Q: Which Kb does the source give for `COc1cccc2c1[C@@H]1CN(CCCCn3c(=O)[nH]c4c(sc5ccc(OC(C)C)nc54)c3=O)C[C@H]1CO2` [Example 51, 3-[4-((3aS,9bR)-trans-9-Methoxy-1,2,3,3a,4,9b-hexahydro-[1]-benzopyrano[3,4-c]pyrrol-2-yl)butyl]-8-isopropoxy-pyrido[2',3':4,5]thieno[3,2-d]pyrimidine-2,4(1H,3H)-dione hydrochloride] here?
A: 0.182 nM
